Results taken from article PMC8537711, “Mechanistic Insights into Binding of Ligands with Thiazolidinedione Warhead to Human Histone Deacetylase 4” (Pharmaceuticals, 2021).

Tests used:
[1] = target: T1, cdHDAC4wt (catalytic domain of human wild type histone deacetylase 4) (Homo sapiens, UniProt P56524); test: IC50 determination, enzyme activity assay with Boc-Lys{TFA}-AMC; assay type: biochemical; conditions: mean ± SD, N = 3
T1 construct: consists of 410 amino acids (human HDAC4 T648-T1057) and has a molecular weight of 44.2 kDa; His6-SUMO (cleaved yes); made in house; host or cells: E. coli (BL21) DE3 pLysS, pET14b vector
Method: Afterwards the enzymatic reaction was initiated by the addition of 20 µM Boc-Lys{TFA}-7-Amino-4-methylcoumarin (Bachem, Bubendorf, Switzerland) as substrate. […] The deacetylated substrate was converted into a fluorescent product by the addition of 0.4 mg/mL trypsin (AppliChem, Darmstadt, Germany). The release of fluorogenic substrate was followed in a microplate reader (PherStar Plus, BMG Labtech, Ortenberg, Germany) at 450 nm (λEx = 350 nm) and correlated to enzyme activity.
All incubations steps were performed for 60 min at 30 °C and 450 rpm.

cdHDAC4wt [2] = target: T2, cdHDAC4wt (Homo sapiens, UniProt P56524); test: Reversibility assay via rapid dilution; residence time from reversibility data; assay type: biochemical; conditions: first order dissociation assumed; read-out: RT (RD), residence time from rapid dilution
T2 construct: consists of 410 amino acids (human HDAC4 T648-T1057) and has a molecular weight of 44.2 kDa; His6-SUMO (cleaved yes); made in house; host or cells: E. coli (BL21) DE3 pLysS, pET14b vector
Method: Rapid dilution was performed by diluting the incubated mixture 100-fold with substrate (Boc-Lys{TFA}-7-Amino-4-methylcoumarin (Bachem, Bubendorf, Switzerland)) with the final substrate concentration being 20 µM. […] A positive control without TZD ligand and a blank without enzyme and TZD ligand were also carried out. […] Once again the final substrate concentration was 20 µM. […] The deacetylated substrate was converted into a fluorescent product by the addition of 0.4 mg/mL trypsin (AppliChem, Darmstadt, Germany). The release of fluorogenic substrate was followed in a microplate reader (PherStar Plus, BMG Labtech, Ortenberg, Germany) at 450 nm (λEx = 350 nm) and correlated the positive control. […] All incubations steps were performed for 60 min at 30 °C and 450 rpm. The substrate was preheated to 30 °C before the rapid dilution step.
The reciprocal values for k equals the residence time of the respective TZD ligand (residence time = koff^−1), which can be compared with the residence times gained from association data.

cdHDAC4wt [3] = target: T2, cdHDAC4wt; test: Association kinetics (semi continuous enzyme activity assay, kobs vs inhibitor concentration); assay type: biochemical; conditions: for residence time: 1/koff (two step) or 1/k−3 (one step), read-out: RT (KF), residence time from kinetic fit; for forward isomerization rate constant (k2) / koff: two step model, isomerization rate; for koff: y-axis intercept
Method: A serial dilution of inhibitor beginning at 10-fold of respective IC50-value in assay buffer (25 mM Tris-HCl, pH 8.0, 75 mM KCl, 0.001% Pluronic F-127) was made in a black 96-well microtiter half-area plate (Greiner, Kremsmuenster, Austria). The dilutions were added to 3 nM cdHDAC4wt. Shortly after, the reaction was initiated by adding 20 µM Boc-Lys{TFA}-7-Amino-4-methylcoumarin (Bachem, Bubendorf, Switzerland) as substrate. […] Finally 0.4 mg/mL trypsin was added to split the deacetylated substrate in the fluorescent product which was measured at 450 nm (λEx = 350 nm) (PherStar Plus, BMG Labtech, Ortenberg, Germany). […] The standardized RFUs were plotted against the incubation time. […] Due to this knowledge the data were fitted via non linear regression with GraphPad Prism program to the following equation by Copeland [27]:(2) Y=νs·t+νi−νs/kobs·(1−e^(−kobs·t))+d where vi is the initial slope, vs is the second lower slope, kobs is the respective rate constant, t is time and d the correction for possible data offset.
Afterwards kobs values were plotted against their respective inhibitor concentration.

T1 sequence (P56524 648-1057): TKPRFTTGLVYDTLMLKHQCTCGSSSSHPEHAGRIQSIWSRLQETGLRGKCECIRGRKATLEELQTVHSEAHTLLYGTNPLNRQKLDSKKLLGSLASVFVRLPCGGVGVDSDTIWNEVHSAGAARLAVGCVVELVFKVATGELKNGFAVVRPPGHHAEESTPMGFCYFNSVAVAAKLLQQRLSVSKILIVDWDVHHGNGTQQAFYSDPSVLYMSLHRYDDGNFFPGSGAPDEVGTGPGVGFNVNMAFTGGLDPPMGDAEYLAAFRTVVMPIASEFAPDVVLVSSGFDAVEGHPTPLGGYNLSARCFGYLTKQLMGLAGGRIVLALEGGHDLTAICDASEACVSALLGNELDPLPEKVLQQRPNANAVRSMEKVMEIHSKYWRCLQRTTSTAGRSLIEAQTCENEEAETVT
T2 sequence (P56524 648-1057): as above

Compound	melting point	further results
Cc1cc2nc(NC(=O)CN3C(=O)SC(=Cc4ccccc4)C3=O)sc2cc1C [GB22, 2-(5-benzylidene-2,4-dioxothiazolidin-3-yl)-N-(5,6-dimethylbenzo[d]thiazol-2-yl)acetamide]	276 to 278 °C	–
Cc1cccc2sc(NC(=O)CN3C(=O)SC(=Cc4ccc(F)cc4)C3=O)nc12 [GB10, 2-(5-(4-fluorobenzylidene)-2,4-dioxothiazolidin-3-yl)-N-(4-methylbenzo[d]thiazol-2-yl)acetamide]	225 to 227 °C	–
O=C(COc1ccc2cc(/C=C3\SC(=O)NC3=O)ccc2c1)Nc1ncccc1F [7s]	–	IC50 [1]: 780 ± 80 nM; residence time (cdHDAC4wt [2]): 11 ± 1 min; residence time (cdHDAC4wt [3]): 10 ± 1 min; y-intercept of kobs plot (k−3) (cdHDAC4wt [3]; linear regression, one step model): 0.0016 s⁻¹; k3 (cdHDAC4wt [3]; one step model, slope of kobs vs ligand concentration): 210 ± 40 M⁻¹ s⁻¹; k−3 (cdHDAC4wt [3]; one step model, y-intercept): 0.16 ± 0.02 s^−1 (×10^−2)
Cc1ccc(C=C2SC(=O)N(CC(=O)Nc3nc4c(Cl)cccc4s3)C2=O)cc1 [GB2, N-(4-chlorobenzo[d]thiazol-2-yl)-2-(5-(4-methylbenzylidene)-2,4-dioxothiazolidin-3-yl)acetamide]	292 to 294 °C	–
Cc1ccc(C=C2SC(=O)N(CC(=O)Nc3nc4c(F)cc(F)cc4s3)C2=O)cc1 [GB19, N-(4,6-difluorobenzo[d]thiazol-2-yl)-2-(5-(4-methylbenzylidene)-2,4-dioxothiazolidin-3-yl)acetamide]	295 to 297 °C	–
Cc1ccc(C=C2SC(=O)N(CC(=O)Nc3nc4c(F)cc(F)cc4s3)C2=O)cc1C [GB20, N-(4,6-difluorobenzo[d]thiazol-2-yl)-2-(5-(3,4-dimethylbenzylidene)-2,4-dioxothiazolidin-3-yl)acetamide]	271 to 273 °C	–
Cc1ccc2nc(NC(=O)CN3C(=O)SC(=Cc4ccc(Br)cc4)C3=O)sc2c1 [GB31, 2-(5-(4-bromobenzylidene)-2,4-dioxothiazolidin-3-yl)-N-(6-methylbenzo[d]thiazol-2-yl)acetamide]	292 to 294 °C	–
O=C1NC(=O)/C(=C/c2ccc3cc(OCC(=O)N4N=C(c5ccccc5)CC4c4ccccc4)ccc3c2)S1 (centres unmarked) [8a]	–	IC50 [1]: 770 ± 90 nM; residence time (cdHDAC4wt [2]): 19 ± 2 min; residence time (cdHDAC4wt [3]): 11 ± 4 min; forward isomerization rate constant (k2) (cdHDAC4wt [3]): 0.0049 ± 0.0014 s⁻¹; koff (cdHDAC4wt [3]): 0.0015 ± 0.0006 s⁻¹; Ki (cdHDAC4wt [3]; two step induced fit model, read-out: K1 (equilibrium constant of initial encounter complex)): 2400 ± 1800 nM
CCOc1ccc2nc(NC(=O)CN3C(=O)SC(=Cc4ccccn4)C3=O)sc2c1 [PB8, 2-(2,4-dioxo-5-(pyridin-2-ylmethylene)thiazolidin-3-yl)-N-(6-ethoxybenzo[d]thiazol-2-yl)acetamide]	230 °C (dec.)	–
O=C1NC(=O)/C(=C/c2ccc(OCC(=O)N3N=C(c4ccc(F)cc4)CC3c3ccc(Cl)c(Cl)c3)cc2)S1 (centres unmarked) [12j]	–	IC50 [1]: 830 ± 20 nM; residence time (cdHDAC4wt [2]): 11 ± 5 min; residence time (cdHDAC4wt [3]): 9 ± 3 min; forward isomerization rate constant (k2) (cdHDAC4wt [3]): 0.0031 ± 0.0007 s⁻¹; koff (cdHDAC4wt [3]): 0.0018 ± 0.0005 s⁻¹
O=C(CN1C(=O)SC(=Cc2ccccn2)C1=O)Nc1nc2c(F)cc(F)cc2s1 [PB5, N-(4,6-difluorobenzo[d]thiazol-2-yl)-2-(2,4-dioxo-5-(pyridin-2-ylmethylene)thiazolidin-3-yl)acetamide]	294 °C (dec.)	–
COc1cccc2sc(NC(=O)CN3C(=O)SC(=Cc4ccccc4)C3=O)nc12 [GB8, 2-(5-benzylidene-2,4-dioxothiazolidin-3-yl)-N-(4-methoxybenzo[d]thiazol-2-yl)acetamide]	157 to 159 °C	–
Cc1ccc(C=C2SC(=O)N(CC(=O)Nc3nc4cc(C)c(C)cc4s3)C2=O)cc1C [GB26, N-(5,6-dimethylbenzo[d]thiazol-2-yl)-2-(5-(3,4-dimethylbenzylidene)-2,4-dioxothiazolidin-3-yl)acetamide]	284 to 286 °C	–
O=C1NC(=O)/C(=C/c2ccc3cc(OCC(=O)N4N=C(c5ccc(F)cc5)CC4c4ccco4)ccc3c2)S1 (centres unmarked) [16c]	–	IC50 [1]: 1400 ± 200 nM; residence time (cdHDAC4wt [2]): 21 ± 7 min; forward isomerization rate constant (k2) (cdHDAC4wt [3]): 0.0035 ± 0.0018 s⁻¹
O=C(CN1C(=O)SC(=Cc2ccccc2)C1=O)Nc1nc2c(F)cc(F)cc2s1 [GB12, 2-(5-benzylidene-2,4-dioxothiazolidin-3-yl)-N-(4,6-difluorobenzo[d]thiazol-2-yl)acetamide]	280 to 282 °C	–
O=C(CN1C(=O)SC(=Cc2ccc(F)cc2)C1=O)Nc1nc2ccc(F)cc2s1 [GB34, N-(6-fluorobenzo[d]thiazol-2-yl)-2-(5-(4-fluorobenzylidene)-2,4-dioxothiazolidin-3-yl)acetamide]	260 to 262 °C	–
O=C(CN1C(=O)SC(=Cc2ccc(Cl)cc2)C1=O)Nc1nc2ccc(F)cc2s1 [GB33, 2-(5-(4-chlorobenzylidene)-2,4-dioxothiazolidin-3-yl)-N-(6-fluorobenzo[d]thiazol-2-yl)acetamide]	290 to 292 °C	–
Cc1cccc2sc(NC(=O)CN3C(=O)SC(=Cc4ccccn4)C3=O)nc12 [PB2, 2-(2,4-dioxo-5-(pyridin-2-ylmethylene)thiazolidin-3-yl)-N-(4-methylbenzo[d]thiazol-2-yl)acetamide]	260 °C (dec.)	–
Cc1cc2nc(NC(=O)CN3C(=O)SC(=Cc4ccccn4)C3=O)sc2cc1C [PB6, N-(5,6-dimethylbenzo[d]thiazol-2-yl)-2-(2,4-dioxo-5-(pyridin-2-ylmethylene)thiazolidin-3-yl)acetamide]	295 °C (dec.)	–
O=C(CN1C(=O)SC(=Cc2ccccc2)C1=O)Nc1nc2c(F)cccc2s1 [GB30, 2-(5-benzylidene-2,4-dioxothiazolidin-3-yl)-N-(4-fluorobenzo[d]thiazol-2-yl)acetamide]	272 to 274 °C	–
Cc1cc2nc(NC(=O)CN3C(=O)SC(=Cc4ccc(F)cc4)C3=O)sc2cc1C [GB25, N-(5,6-dimethylbenzo[d]thiazol-2-yl)-2-(5-(4-fluorobenzylidene)-2,4-dioxothiazolidin-3-yl)acetamide]	298 to 299 °C	–
O=C(CN1C(=O)SC(=Cc2ccc(F)cc2F)C1=O)Nc1nc2c(F)cc(F)cc2s1 [GB29, N-(4,6-difluorobenzo[d]thiazol-2-yl)-2-(5-(2,4-difluorobenzylidene)-2,4-dioxothiazolidin-3-yl)acetamide]	274 to 276 °C	–
Cc1ccc(C=C2SC(=O)N(CC(=O)Nc3nc4c(Cl)cccc4s3)C2=O)cc1C [GB6, N-(4-chlorobenzo[d]thiazol-2-yl)-2-(5-(3,4-dimethylbenzylidene)-2,4-dioxothiazolidin-3-yl)acetamide]	214 to 216 °C	–
O=C(CN1C(=O)SC(=Cc2ccccn2)C1=O)Nc1nc2ccc(F)cc2s1 [PB9, 2-(2,4-dioxo-5-(pyridin-2-ylmethylene)thiazolidin-3-yl)-N-(6-fluorobenzo[d]thiazol-2-yl)acetamide]	265 °C (dec.)	–
COc1cccc2sc(NC(=O)CN3C(=O)SC(=Cc4ccc(F)cc4)C3=O)nc12 [GB35, 2-(5-(4-fluorobenzylidene)-2,4-dioxothiazolidin-3-yl)-N-(4-methoxybenzo[d]thiazol-2-yl)acetamide]	172 °C	–
Cc1ccc2nc(NC(=O)CN3C(=O)SC(=Cc4ccc(F)cc4F)C3=O)sc2c1 [GB13, 2-(5-(2,4-difluorobenzylidene)-2,4-dioxothiazolidin-3-yl)-N-(6-methylbenzo[d]thiazol-2-yl)acetamide]	266 to 268 °C	–
COc1cccc2sc(NC(=O)CN3C(=O)SC(=Cc4ccccn4)C3=O)nc12 [PB7, 2-(2,4-dioxo-5-(pyridin-2-ylmethylene)thiazolidin-3-yl)-N-(4-methoxybenzo[d]thiazol-2-yl)acetamide]	220 to 222 °C	–
O=C(CN1C(=O)SC(=Cc2ccccn2)C1=O)Nc1nc2c(Cl)cccc2s1 [PB4, N-(4-chlorobenzo[d]thiazol-2-yl)-2-(2,4-dioxo-5-(pyridin-2-ylmethylene)thiazolidin-3-yl)acetamide]	273 °C (dec.)	–
